Results taken from patent publication US20040063787A1, “Vaginal health products” (priority 2002, published 2004).
Entries after “also recorded” stand apart in the source; their conditions may differ.

Tests used:
Type in all cases: cell-based, human
ME-180 cells = experiment: Toxicity & proliferation experiments, ME-180 cell counting; settings: for effect on ME-180 cell growth: 1 nM, 10 nM, and 100 nM; for ME-180 cell number / cell growth versus no retinoic acid (negative control): 1 μM or 10 μM (micromolar concentrations)
Method: Cell Lines. Human cervical epithelial cells (ME-180, ATCC) were propagated in culture at 37° C. in a 5% CO2 atmosphere in McCoy's 5A media (Invitrogen) with 10% heat-inactivated fetal bovine serum (Invitrogen). All trans-, 9-cis-, and 13-cis-retinoic acids were purchased from ICN Biomedicals. Retinoic acid stock solutions were made up in DMSO.
Toxicity & Proliferation Experiments. Cellular toxicity/proliferation experiments were performed by first washing the ME-180 cells with HBSS, and adding 3 mL of trypsin (0.25%) with EDTA to the T75 flask for 15 minutes. ME-180 cells in trypsin were added to 7 mL of McCoy's 5A media with 10% FBS. ME-180 cells were centrifuged for 5 minutes, and the supernatant was removed. ME-180 cells were resuspended in 10 mL of McCoy's 5A media with 10% FBS for counting. ME-180 cells were centrifuged for 5 minutes, and the supernatant was removed. ME-180 cells were resuspended at 6×10^4 cells per mL (62 mL total volume). One milliliter was added to each of 60 wells in a total of three 24-well plates. ME-180 cells were allowed to adhere to the wells overnight. The media was then removed from the ME-180 cells, and the cells were washed one time with 1 mL of HBSS. One mL of McCoy's 5A media with 10% FBS was added in duplicate on each plate containing the retinoic acids in various concentrations (0-10 μM). ME-180 cells in each plate were counted on day 1, 2, or 3 after the addition of the retinoic acid-containing media.
Cell counting. Media was removed from the ME-180 cells, and the cells were washed one time with 1 mL of HBSS. Trypsin was added (150 μL) to each well for ˜15 minutes to remove cells. One mL of McCoy's 5A media with 10% FBS was added to each well. ME-180 cells were mixed thoroughly and counted using a hemocytometer.
Cell Proliferation of ME-180 Cells. ME-180 cells were incubated with vitamin A derivatives for a period of up to 3 days. ME-180 cells were counted on each day.

P2Y2 receptor gene = experiment: RT-PCR expression assay of P2Y2 in ME-180 cells; settings: 100 nM
Method: (§1) RNA Extraction from ME-180 cells. ME-180 cells were plated at 2×10^5 cells per T25 flask (5 mL total volume) and were allowed to propagate for four days. On day four, the media was removed. Five mL of McCoy's 5A media with 10% FBS containing 0, 10 nM, 100 nM, or 1 μM trans-retinoic acid were added to ME-180 cells in duplicate. ME-180 cells were incubated with these solutions for 4, 8, 16, or 24 hours. The media was removed, and 700 μL of lysis buffer was added to the flasks. The cells were scraped off of the flask with a cell scraper. The RNA was isolated using the Ambion RNAqueous kit according to the manufacturer's instructions. Precipitated RNA was resuspended in DEPC-treated water with 1 μL of RNase inhibitor. Total cervical RNA used as a control was purchased from Ambion, Inc.
(§2) Reverse Transcripton of RNA. Approximately 7 μL of RNA was incubated with 3 μL of primer at 80° C. for 10 minutes then immediately placed on ice. A master mix containing 4 μL DEPC water, 4 μL 5× reaction buffer, 1 μL dNTPs, 1 μL of RNase inhibitor, and 1 μL of reverse transcriptase was made for the reactions. Ten μL of master mix was added to the RNA/primer solution and placed at 42° C. for 2 hours. The resulting cDNA was incubated with 3.5 μL of NaOH solution at 70° C. for 10 minutes to hydrolyze the remaining RNA. Five μL of 0.5M Tris/EDTA was added to neutralize the solution. […]

[1] = system: vascular endothelial growth factor (VEGF); experiment: RT-PCR expression assay of VEGF in ME-180 cells; settings: 100 nM, 4, 8, and 16 hours, FIG. 5
Method: as §1, §2

mucin-4 (MUC-4) = experiment: RT-PCR expression assay of mucin-4 in ME-180 cells; settings: 100 nM, absence of serum
Method: as §1, with “Five mL of McCoy's 5A media with 10% FBS containing 0, 10 nM, 100 nM, or 1 μM trans-retinoic acid were added to ME-180 cells in duplicate.” left out
as §2, with “solution. To precipitate the cDNA, 125 μL of 3M NH4OAc, 5 μL of linear polyacrylamide, and 700 μL of absolute ethanol were added.” for “solution.”

[2] = system: estrogen receptor alpha (ER-α) gene; experiment: RT-PCR expression assay of ER-α in ME-180 cells; settings: 100 nM, no serum, 4, 8, and 16 hours, FIG. 4 lanes 4-6, listed as vitamin A
Method: as §1, with “Five mL of McCoy's 5A media with 10% FBS containing 0, 10 nM, 100 nM, or 1 μM trans-retinoic acid were added to ME-180 cells in duplicate.” left out
as §2, with “solution. To precipitate the cDNA, 125 μL of 3M NH4OAc, 5 μL of linear polyacrylamide, and 700 μL of absolute ethanol were added.” for “solution.”

| SMILES | effect on ME-180 cell growth (ME-180 cells; up to 3 days, FIG. 1) | toxicity to ME-180 cells (ME-180 cells; micromolar concentrations) | ME-180 cell growth versus negative control (ME-180 cells; micromolar concentrations, two days, FIG. 2) | P2Y2 expression (PCR product) (P2Y2 receptor gene; in the absence of serum, FIG. 3 lanes 8-11) | P2Y2 expression (PCR product) (P2Y2 receptor gene; in the presence of serum, FIG. 3 lanes 4-6) | VEGF expression (PCR product) [1] | MUC-4 expression (PCR product) (mucin-4 (MUC-4); 4 hours or 8 hours, FIG. 6 lanes 4 and 5) | MUC-4 expression (PCR product) (mucin-4 (MUC-4); 16 hours, FIG. 6 lane 6) | toxicity (overall conclusion of the experiments) (ME-180 cells) | growth compared with cells exposed to other agents or to no agents (ME-180 cells; 1 nM to 100 nM, up to 3 days, FIG. 1) | ME-180 cell number / cell growth versus no retinoic acid (negative control) (ME-180 cells; two days, FIG. 2) | ME-180 cell number / cell growth versus no retinoic acid (negative control) (ME-180 cells; two days, FIG. 2, listed as Vitamin A) | ER-α gene expression (PCR product) [2] |
| --- | --- | --- | --- | --- | --- | --- | --- | --- | --- | --- | --- | --- | --- |
| CC1=C(/C=C/C(C)=C\C=C\C(C)=C\C(=O)O)C(C)(C)CCC1 [9-cis-retinoic acid] | little effect on cell growth | – | – | – | – | – | – | – | – | – | – | – | – |
| CC1=C(/C=C/C(C)=C/C=C/C(C)=C\C(=O)O)C(C)(C)CCC1 [13-cis-retinoic acid] | little effect on cell growth | toxic | did not grow as well as the negative control | – | – | – | – | – | – | – | – | – | – |
| CC1=C(/C=C/C(C)=C/C=C/C(C)=C/C(=O)O)C(C)(C)CCC1 [trans-retinoic acid] | little effect on cell growth | – | – | increase in P2Y2 expression | increase in P2Y2 expression | increased the expression | detectable | decreases but is still detectable | nontoxic | growing slightly faster | more cells were present | increases cervical cell growth | the ER-α gene was expressed; also recorded: increase in ER-α expression |
